Test results: patent publication US6348483B1, “Use of derivatives of methylene-bis-oxazolidine and compositions obtained thereby” (Air Liquide Sante (International), priority 1998, dated 2002)

Assays:
Assay type in all cases: cell-based
[1] = tested on: Aspergillus niger (AN); assay: Fungicidal finish (SM 022) of pure acrylate house paint; details: without stress due to leaching
[2] = tested on: Fungi suspension; assay: Boko test in water-diluted cutting fluids, fungi suspension
Description: (§1) In separate batches, in each case 100 ml of the water-diluted cutting fluid to be preserved were admixed with various concentrations of the preservatives to be examined. The growth control used was in each case an unpreserved sample. Two days after the incorporation of the preservatives, the test batches were infected for the first time using 1 ml of an inoculating solution. The inoculating solution used was a suspension of the germs listed below (cultivated on nutrient media and then adapted to water-diluted cutting fluids). […] [table] The test batches were subsequently inoculated two times a week and plated onto agar plates two times per week, the first smear being carried out immediately prior to the new inoculation. The microbial growth on the smears was assessed after incubation at 25° C. for three days. […] The preservative effect of the individual product concentrations was assessed in a semiquantitative method by the colonization of the individual smears using the classification from − to +to +++. Growth was differentiated according to bacteria, yeasts and moulds. The test was usually carried out for twelve inoculation cycles or interrupted after repeated +++growth. The cutting fluids Shell Dromus BX or Almasol EP from Castrol or Rondocor Kompakt from Consulta were examined as 4% strength by weight emulsions in tap water from the city of Norderstedt. Inoculation was carried out using a suspension of bacteria or fungi or a mixed suspension of bacteria and fungi.

[3] = tested on: Chlorella fusca (CF); assay: Algistatic finish (SM 023) of pure acrylate house paint; set-up: key to Surface colonization: −: no growth; +: some growth; ++: moderate growth; +++: strong growth
Description: In separate batches, the test concentrations of the active compounds/products were incorporated into the house paint, and the fungicidal and/or algistatic finish was determined using the stated test methods.
Incorporation and testing were carried out according to the methods SM 022 and SM 023 below.
This laboratory method was employed for determining the resistance of house coatings to colonization by algae. For this method, house coatings on standardized paper are used as test substrate and Chlorella fusca is used as test alga. It is furthermore possible to use pure cultures of other algae species of practical relevance.
The experiments were carried out in Petri dishes on agar nutrient media.
50 g of the material to be finished were, in separate batches, mixed with various concentrations of the algicide to be examined and homogenized for 3-5 min using a basket stirrer.
Paper carrier materials having the dimensions 90×270 mm (Schleicher & Schüll No. 2589 B/X 24078) were coated with the test material. The paint and/or render samples were coated to a wet-layer thickness of 250 μm by knife coating. […] In the case of renders, the layer thickness depends, as in practice, on the particle size. The coated carrier materials, hereinbelow referred to as test bodies, were subsequently dried in a horizontal position for five days.
[…] The cross section of the container for the watering in the direction of flow was 1000±500 cm^2.
From the pretreated test bodies, three sample bodies having a diameter of 5 cm were punched out and sterilized in a Co^60 source using at least 10 kGy.
Aseptically, the samples were placed onto the algae nutrient media, and the centre of the sample was inoculated with 5 ml of each algae suspension.
The mixture of the algae suspensions was spread on the surface using a Drigalski spatula or an offset sterile glass rod.
During the growth phase at 22±2° C., the coated samples in the Petri dishes were irradiated with light of an intensity of about 1000 Lux (customary fluorescent tubes, type D 67 daylight). A cycle of in each case 12 hours of irradiation and 12 hours of storage in the dark was used.
The colonization of the samples by algae was examined and evaluated after two weeks. Evaluation was carried out visually. The evaluation of the samples was based on the following evaluation scale:
No growth of algae on the test bodies
Formation of an inhibitory zone or growth of algae on the nutrient medium up to the edge of the test bodies
Visible colonization of the test body by algae

[4] = tested on: Bacteria suspension; assay: Boko test in water-diluted cutting fluids, bacteria suspension
Description: as §1

[5] = Cutting fluid Almasol EP, use concentration 0.05% by weight
[6] = Cutting fluid Almasol EP, use concentration 0.10% by weight
[7] = Cutting fluid Almasol EP, use concentration 0.15% by weight
[8] = Cutting fluid Rondocor Kompakt, use concentration 0.05% by weight
[9] = Cutting fluid Rondocor Kompakt, use concentration 0.10% by weight
[10] = Cutting fluid Rondocor Kompakt, use concentration 0.15% by weight
[11] = Cutting fluid Shell Dromus BX, use concentration 0.05% by weight
[12] = Cutting fluid Shell Dromus BX, use concentration 0.10% by weight
[13] = Cutting fluid Shell Dromus BX, use concentration 0.15% by weight
[14] = without stress due to 72 hours leaching (so in the source), use concentration 0.5%
[15] = without stress due to 72 hours leaching (so in the source), use concentration 1.0%
[16] = without stress due to 72 hours leaching (so in the source), use concentration 2.0%
[17] = without stress due to leaching, use concentration 0.5%
[18] = without stress due to leaching, use concentration 1.0%
[19] = without stress due to leaching, use concentration 2.0%

## CC1CN(CN2COC(C)C2)CO1 (centres unmarked) [Mar 71, 3,3′-methylenebis-(5-methyloxazolidine)]
[1]; use conc. 0.5% W/W, 1. week
  Fungicidal finish, colonization rating AN: 5 (the sample surface is colonized completely (100%))
[1]; use conc. 0.5% W/W, 2. week
  Fungicidal finish, colonization rating AN: 5 (the sample surface is colonized completely (100%))
[1]; use conc. 1.0% W/W, 1. week
  Fungicidal finish, colonization rating AN: 5 (the sample surface is colonized completely (100%))
[1]; use conc. 1.0% W/W, 2. week
  Fungicidal finish, colonization rating AN: 5 (the sample surface is colonized completely (100%))
[1]; use conc. 2.0% W/W, 1. week
  Fungicidal finish, colonization rating AN: 5 (the sample surface is colonized completely (100%))
[1]; use conc. 2.0% W/W, 2. week
  Fungicidal finish, colonization rating AN: 5 (the sample surface is colonized completely (100%))
[2]; [5]
  Number of inoculation cycles passed on inoculation with Fungi suspension: >12
[2]; [6]
  Number of inoculation cycles passed on inoculation with Fungi suspension: >12
[2]; [7]
  Number of inoculation cycles passed on inoculation with Fungi suspension: >12
[2]; [8]
  Number of inoculation cycles passed on inoculation with Fungi suspension: >12
[2]; [9]
  Number of inoculation cycles passed on inoculation with Fungi suspension: >12
[2]; [10]
  Number of inoculation cycles passed on inoculation with Fungi suspension: >12
[2]; [11]
  Number of inoculation cycles passed on inoculation with Fungi suspension: >12
[2]; [12]
  Number of inoculation cycles passed on inoculation with Fungi suspension: >12
[2]; [13]
  Number of inoculation cycles passed on inoculation with Fungi suspension: >12
[3]; with stress due to leaching
  Algicidal action (in words): little algicidal action in practice
[3]; [14]
  Inhibitory zone: 0 mm
  Surface colonization: ++
[3]; [15]
  Inhibitory zone: 0 mm
  Surface colonization: ++
[3]; [16]
  Inhibitory zone: 0 mm
  Surface colonization: +++
[3]; [17]
  Inhibitory zone: 12 mm
  Surface colonization: −
[3]; [18]
  Inhibitory zone: >18 mm
  Surface colonization: −
[3]; [19]
  Inhibitory zone: >18 mm
  Surface colonization: −
[3]; without stress due to leaching, use concentration from 0.5 to 2% by weight
  Algicidal activity (in words): good algicidal activity
[4]; [5]
  Number of inoculation cycles passed on inoculation with Bacteria suspension: >12
[4]; [6]
  Number of inoculation cycles passed on inoculation with Bacteria suspension: >12
[4]; [7]
  Number of inoculation cycles passed on inoculation with Bacteria suspension: >12
[4]; [8]
  Number of inoculation cycles passed on inoculation with Bacteria suspension: >12
[4]; [9]
  Number of inoculation cycles passed on inoculation with Bacteria suspension: >12
[4]; [10]
  Number of inoculation cycles passed on inoculation with Bacteria suspension: >12
[4]; [11]
  Number of inoculation cycles passed on inoculation with Bacteria suspension: >12
[4]; [12]
  Number of inoculation cycles passed on inoculation with Bacteria suspension: >12
[4]; [13]
  Number of inoculation cycles passed on inoculation with Bacteria suspension: >12
